# Assay results published in PMC9579956 (RSC Medicinal Chemistry, 2022).
# Molecular target: Mycobacterium thermoresistible (Mtr) LpqY (Mycolicibacterium thermoresistibile, UniProt G7CES0)
# Type: binding
# Settings: single dose MST screen against LpqY
# Sequence of Mycobacterium thermoresistible (Mtr) LpqY (G7CES0 29-471): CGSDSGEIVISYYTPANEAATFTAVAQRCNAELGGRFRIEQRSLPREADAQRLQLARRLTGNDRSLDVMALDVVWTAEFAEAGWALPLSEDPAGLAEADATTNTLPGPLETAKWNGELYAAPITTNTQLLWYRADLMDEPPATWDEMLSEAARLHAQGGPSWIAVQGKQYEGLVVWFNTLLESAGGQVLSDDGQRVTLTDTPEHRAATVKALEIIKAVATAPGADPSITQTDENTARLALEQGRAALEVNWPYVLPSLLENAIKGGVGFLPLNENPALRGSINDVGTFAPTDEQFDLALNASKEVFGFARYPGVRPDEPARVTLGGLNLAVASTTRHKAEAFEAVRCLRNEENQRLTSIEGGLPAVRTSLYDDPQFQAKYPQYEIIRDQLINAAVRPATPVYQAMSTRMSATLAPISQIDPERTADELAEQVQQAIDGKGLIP
row,Compound,Pathogen Box screen signal/noise ratio
1,O=C1O[C@@H](CO)CN1c1cc(F)c(C2=CCN(Cc3ccccc3)CC2)c(F)c1 [MMV687729],1.5
2,c1coc(CNc2nc(N3CCCCC3)nc3ccccc23)c1 [MMV676401],1.9
3,CC1CS(=O)(=O)CCN1/N=C/c1ccc([N+](=O)[O-])o1 (stereo not drawn) [MMV001499],2.4
4,O=C(CCC1CCCCC1)Nc1cccc(-c2nnc(-c3ccco3)o2)c1 [MMV676589],0.6
5,OCc1ccc(-c2cncc(Nc3cccc(Cl)c3)c2)cc1 [MMV026468],0.563
6,CCn1ncc2c(NC3CCOCC3)c(CNC(=O)c3ccnn3C)c(C)nc21 [MMV026356],0.6
7,Cc1nn(C(=O)Nc2cccc(C(F)(F)F)c2)c(C)c1Sc1ncccn1 [MMV688552],0.8
8,O=C(NCc1ccco1)N1CCN(Cc2ccc(Cl)s2)CC1 [MMV688555],0.218
9,O=C(NCc1nnc2n1CCCCC2)c1ccc(-c2ccc(F)cc2)o1 [MMV688796],0.278
10,CC(C)NCC(=O)Nc1cccc(C(=O)Nc2cccc(C(F)(F)F)c2)c1 [MMV020165],4.3
11,CN1CCN(c2nccc3[nH]c(-c4cccc(F)c4)cc23)CC1 [MMV393144],1.4
12,c1ccc(-c2[nH]c3ccccc3c2C(c2ccccn2)N2CCCC2)cc1 (stereo not drawn) [MMV688762],0.9
13,Clc1cccc(C(c2ccc(CN3CCNCC3)cc2)n2ccnc2)c1 (stereo not drawn) [MMV663250],0.278
14,CC1CCCCN1C(=O)NCCc1coc(-c2ccc(F)cc2)n1 (stereo not drawn) [MMV688797],1.4
15,Cn1ncc2c(N3CCOCC3)nc(NCCc3c[nH]c4ccccc34)nc21 [MMV676382],0.7
16,Nc1ncnc2c1ncn2C[C@@H](O)[C@@H](O)C(=O)O [MMV689255],2.5
17,CN1CCCN(C(c2ccccc2)c2ccc(Cl)cc2)CC1 (stereo not drawn) [MMV004168],0.9
18,COC(=O)c1c(NC(=O)c2cc3ccccc3oc2=O)sc2c1CCN(Cc1ccccc1)C2 [MMV676480],1.3
19,Cc1nnc(NCc2cccc(Cl)c2)c2ccccc12 [MMV676555],0.9
20,CC(C(=O)N1CCCC1)N1CCN(S(=O)(=O)c2ccc(C(C)(C)C)cc2)CC1 (stereo not drawn) [MMV020291],1.8
21,CCc1nc2ccc(C(=O)NCc3ccc4c(c3)OCO4)cn2c1N(C)Cc1cccs1 [MMV407539],0.241

row,Compound,Pathogen Box screen signal/noise ratio
1,CC1COC2(CCN(c3nc(=O)c4cc(C(F)(F)F)cc([N+](=O)[O-])c4s3)CC2)O1 (stereo not drawn) [MMV676603],1.8
2,O=C(N[C@H](Cc1ccccc1)C(=O)Nc1ccccc1N1CCOCC1)c1cccs1 [MMV688845],1.6
3,Cc1cc(C(=O)Nc2ccc(-c3ccccc3)cc2)no1 [MMV020152],0.742
4,COc1cccc(OCC(=O)c2ccc(Br)cc2)c1 [MMV676379],-0.0278
5,COc1ccc(C2=NN(C3CCCCCC3)C(=O)C2(C)C)cc1OCc1ccccn1 [MMV688360],1.5
6,CN1CCN(CCCOc2ncc(Nc3ncc(-c4ccc(C(F)(F)F)c(F)c4)nc3C(N)=O)cn2)CC1 [MMV687812],4.1
7,CCc1nc2ccc(Cl)cn2c1C(=O)NCc1ccc(N2CCC(c3ccc(OC(F)(F)F)cc3)CC2)cc1 [MMV687696],1.0
8,Cc1cc2ccccc2n1CC(=O)N1CC(C(=O)N2CCCCC2)Oc2ccccc21 (stereo not drawn) [MMV020520],2.0
9,CCOC(=O)c1noc(N)c1-c1ccccc1 [MMV1236379],1.2
10,CC[C@H](CO)NCCN[C@H](CC)CO [MMV687801],1.5
11,COc1ccc(C(=N)N)cc1-c1cn(-c2ccc(C(=N)N)cc2)nn1 [MMV675998],1.0
12,O=C(c1cc2ccccc2o1)N1CCN(Cc2ccc3c(c2)OCO3)CC1 [MMV676520],1.1
13,Cc1cccc(C(=O)Nc2ccnc(N(C)C3CCN(CC(C)C)CC3)c2)c1 [MMV024829],-0.0167
14,Clc1ccc(CN2CCN(C3=NCCN3)CC2)cc1Cl [MMV689060],0.464
15,CS(=O)(=O)c1cccc(-c2cnc3[nH]cc(-c4ccc(CCC(=O)O)cc4)c3c2)c1 [MMV026020],1.4
16,CC(C)(C(=O)Nc1ccc(F)cc1)n1cc(-c2ccccc2F)cn1 [MMV687239],0.467
17,CN(C)c1cc(NC(=O)Nc2ccccc2)c2ccccc2n1 [MMV006901],1.2
18,CC(C)(C)n1nc(Cc2cccc3ccccc23)c2c(N)ncnc21 [MMV676599],0.6
19,Cc1ccc(NC(=O)c2nc[nH]c2C(=O)Nc2nc3ccccc3[nH]2)c(C)c1 [MMV011903],1.4
20,CCCCc1ccc(C(=O)Nc2nccc3ccccc23)nc1 [MMV687254],0.0729
21,COc1cc(NC(=O)Cc2nn(C)c(=O)c3ccccc23)ccc1Cl [MMV676053],1.3

row,Compound,Pathogen Box screen signal/noise ratio
1,CC(C)c1ncc(-c2ccncc2)c([C@H]2CC[C@H](CNC(=O)c3cccnc3)CC2)n1 [MMV676442],0.8
2,NCC(c1cccs1)S(=O)(=O)c1ccccc1 (stereo not drawn) [MMV688557],0.569
3,CCc1ccc(S(=O)(=O)Nc2cc(CN3CCN(CCC(C)C)CC3)ccc2C)cc1 [MMV688124],0.85
4,COc1ccc(Cl)cc1NC(=O)CN(C)C(=O)c1cnn(-c2ccccc2)n1 [MMV020710],1.8
5,Nc1ncnc2c1c(-c1cnc3ccccc3c1)nn2CC1CCNCC1 [MMV688411],2.1
6,CCn1cnc2c(Nc3cc(F)cc(F)c3)nc(C#N)nc21 [MMV676881],0.536
7,CCNC(=O)C(C)Nc1nc(-c2cccnc2)nc2sc(C)c(C)c12 (stereo not drawn) [MMV1037162],1.2
8,COc1cccc(CC(=O)N2CCC(n3c(C)nc4ccc(F)cc43)CC2)c1 [MMV020081],0.152
9,COc1nc2ccc(Br)cc2cc1[C@@H](c1ccccc1)[C@@](O)(CCN(C)C)c1cccc2ccccc12 [MMV689758],0.444
10,CC(C)(C)c1cc(C(=O)N2CCN(c3nccnc3C#N)CC2)n(Cc2ccccc2)n1 [MMV023949],0.7
11,O=C(C1CCCCC1)N1CC(=O)N2CCc3ccccc3C2C1 (stereo not drawn) [MMV002529],0.167
12,Cc1cccnc1NC(=O)c1cccc(OCc2c(C)noc2C)c1 [MMV688793],0.4
13,O=C1COCc2ccc(Br)cc2N1Cc1ccc(C(F)(F)F)cc1 [MMV032995],0.9
14,FC(F)(F)c1cccc(-c2nc3c(NCc4ccncc4)nccc3[nH]2)c1 [MMV032967],3.3
15,CCCS(=O)(=O)N1CCC(CO)(Cc2ccccc2C(F)(F)F)CC1 [MMV001059],0.0926
16,O=C(Nc1ccc2c(c1)B(O)OC2)c1ccccc1C(F)(F)F [MMV652003],0.444
17,CCc1nc2ccccc2n1CC(O)COc1cc(C)ccc1Cl (stereo not drawn) [MMV676449],1.2
18,CO/C=C(/C(=O)OC)c1ccccc1Oc1cc(Oc2ccccc2C#N)ncn1 [MMV021057],0.6
19,c1cc(C2=NCCN2)cc(-c2cc(-c3ccc(C4=NCCN4)cc3)no2)c1 [MMV688361],0.271
20,CS(=O)(=O)Cc1nc2ccccc2oc1=O [MMV553002],3.2
21,CCc1c(C)nc(-n2nc(C)cc2NC(=O)c2ccccc2SC)[nH]c1=O [MMV676477],0.7

row,Compound,Pathogen Box screen signal/noise ratio
1,COc1cc(C2=NCCN2)ccc1-n1cc(-c2cccc(C3=NCCN3)c2)nn1 [MMV688474],0.217
2,CC(=O)NC[C@@H]1CN(c2ccc(N3CCOCC3)c(F)c2)C(=O)O1 [MMV687803],2.0
3,O[C@@H](c1cc(C(F)(F)F)nc2c(C(F)(F)F)cccc12)[C@H]1CCCCN1 [MMV000016],1.8
4,CC(C)(C)OC(=O)N1CCC(Cn2nc(-c3cnc4ccccc4c3)c3c(N)ncnc32)CC1 [MMV688364],0.6
5,Cc1cc(C)c2cc(C(=O)NC3CCCCCCC3)[nH]c2c1 [MMV687146],1.1
6,Nc1ncnc2c1c(Cc1cccc3ccccc13)nn2CC1CCNCC1 [MMV676182],0.0
7,O=C(C1CCN(c2nnnn2-c2ccccc2)CC1)N1CCc2ccccc2C1 [MMV009135],1.2
8,FC(F)(F)c1cc(NCCc2ccccc2)nc(-c2ccccn2)n1 [MMV659010],1.0
9,O=C(Nc1nnc(S)s1)c1cc(Br)ccc1Cl [MMV676492],0.9
10,Cc1ccc2oc(-c3cc(NC(=O)Cc4ccccc4)ccc3Cl)nc2c1 [MMV676509],3.4
11,COc1ccc(CN2CCOc3ccc(C(C)(O)CN(C)C)cc3C2)cc1C (stereo not drawn) [MMV008439],0.222
12,Nc1ncc(-c2cn[nH]c2)cc1-c1nc2cc(Cl)cnc2[nH]1 [MMV023370],1.1
13,Cc1ccc2cc(C3NC(=O)c4ccccc4N3)c(Cl)nc2c1 (stereo not drawn) [MMV019807],0.7
14,COc1cc2ncnc(NC3CCN(Cc4ccccc4)CC3)c2cc1OC [MMV006741],4.3
15,CC(=O)NC[C@H]1CN(c2ccc(N3CCSCC3)c(F)c2)C(=O)O1 [MMV688756],1.1
16,COc1ccc(C2=NN(C3CCCCCC3)C(=O)[C@@H]3CC=CC[C@H]23)cc1OCCCCOc1ccc(-c2nn[nH]n2)cc1 [MMV690027],0.9
17,c1ccc(C[C@@H]2CN(c3nccc(Oc4ccc(-n5ccnc5)cc4)n3)CCN2)cc1 [MMV687749],0.0357
18,CCOc1ccc2cc(-c3nn(C(C)(C)C)c(N)c3C(N)=O)cnc2c1 [MMV688853],3.8
